Assay results taken from ChEMBL document CHEMBL2074188, “Effects of the flavonoids biochanin A, morin, phloretin, and silymarin on P-glycoprotein-mediated transport” (J Pharmacol Exp Ther, 2003).

What was measured:
Type in all cases: functional, cell-based
[1] = target: T1, ATP-dependent translocase ABCB1 (Homo sapiens, UniProt P08183); test: TP_TRANSPORTER: increase in Daunomycin intracellular accumulation (Daunomycin: 0.05 uM, Morin: 50 uM) in MDA435/[…] cells
[2] = target: T1, ATP-dependent translocase ABCB1; test: TP_TRANSPORTER: cell accumulation of daunomycin in MDA435/LCC6MDR1 cells
[3] = target: T1, ATP-dependent translocase ABCB1; test: TP_TRANSPORTER: increase in Daunomycin intracellular accumulation (Daunomycin: 0.05 uM, BiochaninA: 50 uM) in MDA435/[…] cell
[4] = target: T1, ATP-dependent translocase ABCB1; test: TP_TRANSPORTER: increase in Daunomycin intracellular accumulation (Daunomycin: 0.05 uM, Silymarin: 50 uM) in MDA435/LCC6 MDR1 cells; details: mda-mb-435/lcc6 mdr1, 50 µM

T1 sequence (P08183 whole entry): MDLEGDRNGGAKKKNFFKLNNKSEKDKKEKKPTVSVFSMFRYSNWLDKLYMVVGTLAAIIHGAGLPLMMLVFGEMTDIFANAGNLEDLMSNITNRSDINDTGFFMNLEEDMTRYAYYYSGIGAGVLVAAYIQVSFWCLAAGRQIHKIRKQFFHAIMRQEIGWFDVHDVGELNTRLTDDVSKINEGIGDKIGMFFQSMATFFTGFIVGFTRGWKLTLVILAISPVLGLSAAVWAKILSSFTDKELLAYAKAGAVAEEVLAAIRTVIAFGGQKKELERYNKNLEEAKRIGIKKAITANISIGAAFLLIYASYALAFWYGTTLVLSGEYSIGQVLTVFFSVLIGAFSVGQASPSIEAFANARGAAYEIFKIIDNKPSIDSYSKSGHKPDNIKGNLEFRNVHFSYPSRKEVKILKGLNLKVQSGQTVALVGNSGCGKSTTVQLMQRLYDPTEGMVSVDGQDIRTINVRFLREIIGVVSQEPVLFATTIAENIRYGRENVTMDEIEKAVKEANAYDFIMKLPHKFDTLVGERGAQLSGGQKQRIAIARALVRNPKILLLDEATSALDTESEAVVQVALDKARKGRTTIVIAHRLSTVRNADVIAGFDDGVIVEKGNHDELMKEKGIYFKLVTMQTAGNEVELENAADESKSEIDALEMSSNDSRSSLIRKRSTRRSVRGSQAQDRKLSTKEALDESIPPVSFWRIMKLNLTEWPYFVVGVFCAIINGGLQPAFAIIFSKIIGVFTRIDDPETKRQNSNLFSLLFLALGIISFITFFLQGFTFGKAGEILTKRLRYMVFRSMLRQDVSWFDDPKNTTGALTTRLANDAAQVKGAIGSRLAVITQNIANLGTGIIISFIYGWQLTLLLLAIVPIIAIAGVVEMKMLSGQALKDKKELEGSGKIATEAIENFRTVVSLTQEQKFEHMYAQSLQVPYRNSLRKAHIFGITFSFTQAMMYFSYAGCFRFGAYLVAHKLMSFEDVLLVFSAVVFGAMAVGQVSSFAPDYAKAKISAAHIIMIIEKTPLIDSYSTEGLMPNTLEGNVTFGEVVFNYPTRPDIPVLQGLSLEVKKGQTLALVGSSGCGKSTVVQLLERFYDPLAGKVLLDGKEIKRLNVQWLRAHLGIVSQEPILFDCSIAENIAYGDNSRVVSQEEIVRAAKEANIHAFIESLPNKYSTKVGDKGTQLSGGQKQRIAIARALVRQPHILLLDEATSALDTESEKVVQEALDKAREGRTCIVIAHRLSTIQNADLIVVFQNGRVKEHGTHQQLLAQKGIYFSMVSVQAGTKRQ

With `O=c1c(O)c(-c2ccc(O)cc2O)oc2cc(O)cc(O)c12` [MORIN] the Activity [1] was “inhibitor [(at a rough estimate) 585 % of control]” and the Activity [2] was “inhibitor [+]”.
With `O=C(CCc1ccc(O)cc1)c1c(O)cc(O)cc1O` [PHLORETIN] the Activity [2] was “inhibitor [+]”.
For `COc1ccc(-c2coc3cc(O)cc(O)c3c2=O)cc1` [BIOCHANIN], the Activity [3] was “inhibitor [(at a rough estimate) 645 % of control]” and the Activity [2] was “inhibitor [+]”.
In the case of `COc1ccc(CCN(C)CCCC(C#N)(c2ccc(OC)c(OC)c2)C(C)C)cc1OC` (stereo not drawn) [VERAPAMIL], the Activity [2] is reported as “inhibitor [+]”.
For SILYMARIN, the Activity [4] was “inhibitor [(at a rough estimate) 420 % of control]” and the Activity [2] was “inhibitor [+]”.
